Earlier results, collected in patent US20110268774A1, “PREPARATION OF STEM CELLS WITH REPROGRAMMED CELL SIGNALLING, A METHOD OF PRODUCING THE PREPARATION AND A METHOD OF USE THEREOF” (priority 2008, published 2011).

Biological target: Protein produced by HER2/neu gene (Homo sapiens, UniProt P04626)
Conditions: breast cancer

Chain of Protein produced by HER2/neu gene (P04626 23-1255): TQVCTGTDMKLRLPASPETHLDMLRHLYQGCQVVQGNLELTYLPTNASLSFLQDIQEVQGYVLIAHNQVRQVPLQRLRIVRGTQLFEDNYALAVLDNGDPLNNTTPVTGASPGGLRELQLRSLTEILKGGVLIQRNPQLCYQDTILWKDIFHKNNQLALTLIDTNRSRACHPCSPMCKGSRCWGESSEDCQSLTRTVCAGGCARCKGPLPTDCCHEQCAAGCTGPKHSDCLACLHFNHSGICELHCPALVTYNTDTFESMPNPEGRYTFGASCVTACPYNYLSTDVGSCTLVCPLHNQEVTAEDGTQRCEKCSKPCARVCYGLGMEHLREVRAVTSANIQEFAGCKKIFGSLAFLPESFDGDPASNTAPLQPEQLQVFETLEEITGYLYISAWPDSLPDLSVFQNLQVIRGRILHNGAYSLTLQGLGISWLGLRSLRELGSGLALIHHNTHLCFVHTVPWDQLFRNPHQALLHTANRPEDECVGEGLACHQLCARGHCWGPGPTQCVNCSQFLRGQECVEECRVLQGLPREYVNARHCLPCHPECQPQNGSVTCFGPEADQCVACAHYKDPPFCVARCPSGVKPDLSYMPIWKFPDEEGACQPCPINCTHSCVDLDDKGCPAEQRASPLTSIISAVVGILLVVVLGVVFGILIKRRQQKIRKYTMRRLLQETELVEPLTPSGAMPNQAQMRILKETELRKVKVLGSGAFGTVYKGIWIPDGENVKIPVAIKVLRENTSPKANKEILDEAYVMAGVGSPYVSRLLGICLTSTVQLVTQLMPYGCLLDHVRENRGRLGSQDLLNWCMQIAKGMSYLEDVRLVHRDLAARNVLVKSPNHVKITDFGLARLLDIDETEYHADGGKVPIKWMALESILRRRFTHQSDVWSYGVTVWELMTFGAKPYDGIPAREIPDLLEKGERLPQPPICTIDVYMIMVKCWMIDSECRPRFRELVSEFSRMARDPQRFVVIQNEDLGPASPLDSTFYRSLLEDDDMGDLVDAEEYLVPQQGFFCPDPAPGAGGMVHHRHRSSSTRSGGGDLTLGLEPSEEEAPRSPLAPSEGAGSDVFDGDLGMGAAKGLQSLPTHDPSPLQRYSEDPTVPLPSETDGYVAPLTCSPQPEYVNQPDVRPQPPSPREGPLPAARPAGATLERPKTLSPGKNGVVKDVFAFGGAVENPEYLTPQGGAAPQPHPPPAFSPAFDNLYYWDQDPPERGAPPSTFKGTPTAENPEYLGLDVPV

CS(=O)(=O)CCNCc1ccc(-c2ccc3ncnc(Nc4ccc(OCc5cccc(F)c5)c(Cl)c4)c3c2)o1 [Tykerb]
recovery: 63%
CSC percentage in tumour (from 11%): 5%
